The experiment relates to BDF1 mice, B16 melanoma ip, median survival T/C. Description: NCI In Vivo Anticancer Drug Screen. Data for tumor model B16 Melanoma (intraperitoneal) in B6D2F1 (BDF1) mice. The note with it: endpoint: median survival time, higher = longer survival. The gist of the method: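 Mice with transplantable tumors; drug vs vehicle groups; endpoint survival or tumor size; value = T/C.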

Where [1] appears, read: dose: 400.0 mg/kg/injection, schedule: Q01DX009 (ip), vehicle: saline with Tween-80.
[2] abbreviates: dose: 12.5 mg/kg/injection, schedule: Q01DX009 (ip), vehicle: Klucel (hydroxypropylcellulose) (HPC).
[3] abbreviates: dose: 25.0 mg/kg/injection, schedule: Q01DX009 (ip), vehicle: Klucel (hydroxypropylcellulose) (HPC).
Where [4] appears, read: dose: 100.0 mg/kg/injection, schedule: Q01DX009 (ip), vehicle: saline with Tween-80.
Setting [5] is: dose: 200.0 mg/kg/injection, schedule: Q01DX009 (ip), vehicle: saline with Tween-80.
Where [6] appears, read: dose: 100.0 mg/kg/injection, schedule: Q01DX009 (ip), vehicle: Klucel (hydroxypropylcellulose) (HPC).
[7] abbreviates: dose: 200.0 mg/kg/injection, schedule: Q01DX009 (ip), vehicle: Klucel (hydroxypropylcellulose) (HPC).
[8] abbreviates: dose: 50.0 mg/kg/injection, schedule: Q01DX009 (ip), vehicle: saline with Tween-80.
The mark [9] stands for this setting: dose: 25.0 mg/kg/injection, schedule: Q01DX009 (ip), vehicle: saline with Tween-80.
Setting [10] is: dose: 12.5 mg/kg/injection, schedule: Q01DX009 (ip), vehicle: saline with Tween-80.

Where “and” joins values, the source holds several entries; their conditions need not be identical. Equal values may be shown once. Toxic doses and inconclusive results are not listed.

For the compound `COc1cccc2c1C(=O)c1c(O)c3c(c(O)c1C2=O)C[C@@](O)(C(C)O)C[C@@H]3OC1CC(N2CCC(OC)CC2)C(O)C(C)O1` (some centres not stated), the T/C reads like this: (dose: 3.12 mg/kg/injection, schedule: Q01DX001 (ip), vehicle: water) 112 % of control; (dose: 6.25 mg/kg/injection, schedule: Q01DX001 (ip), vehicle: water) 117 % of control; (dose: 12.5 mg/kg/injection, schedule: Q01DX001 (ip), vehicle: water) 173 % of control; (dose: 25.0 mg/kg/injection, schedule: Q01DX001 (ip), vehicle: water) 165 % of control and 166 % of control; (dose: 50.0 mg/kg/injection, schedule: Q01DX001 (ip), vehicle: water) 177 % of control.
As to `Cc1ccc(C)c(NC(=O)c2ccc(Cl)cc2Cl)c1`, the T/C is, setting by setting: (dose: 100.0 mg/kg/injection, schedule: Q04DX003 (ip), vehicle: saline with Tween-80) 100 % of control; (dose: 200.0 mg/kg/injection, schedule: Q04DX003 (ip), vehicle: saline with Tween-80) 94 % of control; (dose: 400.0 mg/kg/injection, schedule: Q04DX003 (ip), vehicle: saline with Tween-80) 88 % of control.
Take `Nc1nc(-c2ccccc2)c(Br)c(=O)[nH]1`: the T/C under setting [1] is 150 % of control.
Regarding `CCCCCCCCCCCCCCCCNS(=O)(=O)c1ccc(NN)cc1`, the T/C is 93 % of control under setting [2]; 96 % of control under setting [3]; 89 % of control and 90 % of control (dose: 50.0 mg/kg/injection, schedule: Q01DX009 (ip), vehicle: Klucel (hydroxypropylcellulose) (HPC)).
As to `O=C(c1ccccc1)c1cc([N+](=O)[O-])cc([N+](=O)[O-])c1`, the T/C under setting [4] is 97 % of control, the T/C under setting [5] was 91 % of control and the T/C under setting [1] was 89 % of control.
Taken in the same sequence, the figures for `OC(c1ccccc1)C1(c2ccccc2)OCCO1` (configuration not stated) were 100 % of control, 95 % of control and 90 % of control.
`CCOc1ccc(/C=N\N=C\c2ccc(OCC)cc2)cc1`: the T/C is, setting by setting: under setting [6], 95 % of control; under setting [7], 90 % of control and 110 % of control.
`C/C=C1/CC(C)C(C)(O)C(=O)OCC2CCN3CCC(OC1=O)C23` (configuration not stated): the T/C by setting is: (dose: 12.5 mg/kg/injection, schedule: Q01DX009 (ip), vehicle: saline) 109 % of control; (dose: 25.0 mg/kg/injection, schedule: Q01DX009 (ip), vehicle: saline) 109 % of control; (dose: 50.0 mg/kg/injection, schedule: Q01DX009 (ip), vehicle: saline) 102 % of control; (dose: 100.0 mg/kg/injection, schedule: Q01DX009 (ip), vehicle: saline) 107 % of control.
In the case of `Cc1c2c(cc3c1[nH]c1ccccc13)C=NCC2`, the T/C under setting [8] is 107 % of control, the T/C under setting [4] was 98 % of control and the T/C under setting [5] is 109 % of control.
As for `Cc1cccc(C)c1NC(=O)Nc1cccc2ccccc12`, the T/C reads like this: (dose: 100.0 mg/kg/injection, schedule: Q01DX009 (ip), vehicle: gum acacia) 117 % of control; (dose: 200.0 mg/kg/injection, schedule: Q01DX009 (ip), vehicle: gum acacia) 109 % of control; (dose: 400.0 mg/kg/injection, schedule: Q01DX009 (ip), vehicle: gum acacia) 100 % of control.
With `CC[C@@]1(O)C(=O)OCc2c1cc1n(c2=O)Cc2cc3cc(OC)ccc3nc2-1`, the T/C reads like this: (dose: 0.39 mg/kg/injection, schedule: Q01DX009 (ip), vehicle: other) 157 % of control; (dose: 0.79 mg/kg/injection, schedule: Q01DX009 (ip), vehicle: other) 174 % of control.
On to `Nc1ccc(N=Nc2ccccc2)c(N)c1`, for which the T/C is, setting by setting: under setting [9], 106 % of control; under setting [8], 93 % of control and 101 % of control; under setting [6], 101 % of control; under setting [4], 95 % of control and 101 % of control; under setting [7], 99 % of control; under setting [5], 87 % of control and 90 % of control.
For `COc1cccc(/C=C/[N+](=O)[O-])c1OC`, the T/C (dose: 35.0 mg/kg/injection, schedule: Q01DX009 (ip), vehicle: saline with Tween-80) was 117 % of control and the T/C (dose: 70.0 mg/kg/injection, schedule: Q01DX009 (ip), vehicle: saline with Tween-80) was 104 % of control.
In the case of `NC(Cc1ccc(O)cc1)C(=O)OCc1ccccc1` (configuration not stated), the T/C under setting [4] was 102 % of control, the T/C under setting [5] is 114 % of control and the T/C under setting [1] was 98 % of control.
On to `Nc1ccccc1SC1CC(=O)N(c2cccc(Cl)c2)C1=O` (configuration not stated), for which the T/C runs as follows: under setting [6], 95 % of control; under setting [7], 90 % of control.
With `C=CCOCC(O)CO` (configuration not stated), the T/C (dose: 100.0 mg/kg/injection, schedule: Q04DX003 (ip), vehicle: saline) was 109 % of control; the T/C (dose: 200.0 mg/kg/injection, schedule: Q04DX003 (ip), vehicle: saline) is 93 % of control; the T/C (dose: 400.0 mg/kg/injection, schedule: Q04DX003 (ip), vehicle: saline) is 102 % of control.
As for `CCCN(/C=C/C=C/C=[N+](CCC)CCC)CCC`, the T/C reads like this: (dose: 0.03 mg/kg/injection, schedule: Q01DX009 (ip), vehicle: saline) 107 % of control; (dose: 0.05 mg/kg/injection, schedule: Q01DX009 (ip), vehicle: saline) 109 % of control; (dose: 0.1 mg/kg/injection, schedule: Q01DX009 (ip), vehicle: saline) 103 % of control; (dose: 0.2 mg/kg/injection, schedule: Q01DX009 (ip), vehicle: saline) 96 % of control.
`C[CH2][Sn]([F])([CH2]C)[CH2]C`: the T/C by setting is: (dose: 0.37 mg/kg/injection, schedule: Q01DX009 (ip), vehicle: saline with Tween-80) 104 % of control; (dose: 0.75 mg/kg/injection, schedule: Q01DX009 (ip), vehicle: saline with Tween-80) 109 % of control; (dose: 1.5 mg/kg/injection, schedule: Q01DX009 (ip), vehicle: saline with Tween-80) 102 % of control; (dose: 3.0 mg/kg/injection, schedule: Q01DX009 (ip), vehicle: saline with Tween-80) 94 % of control.
As for `S=c1[nH]c2ccccc2[nH]1`, the T/C reads like this: (dose: 1.56 mg/kg/injection, schedule: Q01DX009 (ip), vehicle: Klucel (hydroxypropylcellulose) (HPC)) 91 % of control; (dose: 3.12 mg/kg/injection, schedule: Q01DX009 (ip), vehicle: Klucel (hydroxypropylcellulose) (HPC)) 90 % of control; (dose: 6.25 mg/kg/injection, schedule: Q01DX009 (ip), vehicle: Klucel (hydroxypropylcellulose) (HPC)) 95 % of control; under setting [2], 86 % of control; under setting [3], 100 % of control.
For the compound `ClCCN(CCCl)CCCN1c2ccccc2Sc2ccc(Cl)cc21`, the T/C reads like this: (dose: 3.12 mg/kg/injection, schedule: Q01DX009 (ip), vehicle: saline with Tween-80) 120 % of control; under setting [10], 120 % of control; under setting [9], 117 % of control.
In the case of `C/C(=C\c1ccccc1)C(=O)c1ccc(-c2ccccc2)cc1`, the T/C is, setting by setting: (dose: 100.0 mg/kg/injection, schedule: Q04DX003 (ip), vehicle: Klucel (hydroxypropylcellulose) (HPC)) 103 % of control; (dose: 200.0 mg/kg/injection, schedule: Q04DX003 (ip), vehicle: Klucel (hydroxypropylcellulose) (HPC)) 95 % of control; (dose: 400.0 mg/kg/injection, schedule: Q04DX003 (ip), vehicle: Klucel (hydroxypropylcellulose) (HPC)) 106 % of control.
As for `OCN(CO)c1nc(N(CO)CO)nc(N(CO)CO)n1`, the T/C was 97 % of control (dose: 6.25 mg/kg/injection, schedule: Q01DX009 (ip), vehicle: saline with Tween-80); 100 % of control under setting [10]; 94 % of control under setting [9]; 92 % of control under setting [8]; 90 % of control under setting [5].

Source of the values: PubChem BioAssay AID192 (DTP/NCI, 2004).
